Key:
Format in all cases: cell-based
[1] = target: T1, phosphoenolpyruvate carboxykinase (PEPCK) (Rattus norvegicus, UniProt P07379); experiment: enzyme activity in rat liver cytosolic fraction, coupled to malate dehydrogenase (NADH oxidation, […] nm); […] inhibition at […]
T1 construct: gene Pck1; rat liver cytosolic fraction

[2] = target: T2, fructose 1,6-bisphosphatase (FBPase-1) (Rattus norvegicus, UniProt P19112); experiment: phosphate release from fructose […],6-bisphosphate in rat liver cytosolic fraction; […] (incomplete) inhibition at […]
T2 construct: gene Fbp1; rat liver cytosolic fraction
T2 sequence (P19112 2-363): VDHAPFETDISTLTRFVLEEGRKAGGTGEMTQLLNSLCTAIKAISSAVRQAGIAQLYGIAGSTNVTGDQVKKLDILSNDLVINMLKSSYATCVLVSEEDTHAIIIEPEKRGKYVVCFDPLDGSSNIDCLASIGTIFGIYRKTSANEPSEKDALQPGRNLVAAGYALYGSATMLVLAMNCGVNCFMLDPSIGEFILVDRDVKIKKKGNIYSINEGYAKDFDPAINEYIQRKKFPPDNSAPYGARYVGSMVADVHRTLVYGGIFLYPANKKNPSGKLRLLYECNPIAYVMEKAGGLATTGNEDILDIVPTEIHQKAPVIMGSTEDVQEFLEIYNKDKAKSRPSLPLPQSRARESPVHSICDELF

[3] = target: T3, glucose 6-phosphatase (G6Pase) (Rattus norvegicus, UniProt P43428); experiment: phosphate release from glucose 6-phosphate in isolated rat liver microsomes; […] inhibition at […]
T3 construct: gene G6pc1; isolated rat liver microsomes
T3 sequence (P43428 1-357): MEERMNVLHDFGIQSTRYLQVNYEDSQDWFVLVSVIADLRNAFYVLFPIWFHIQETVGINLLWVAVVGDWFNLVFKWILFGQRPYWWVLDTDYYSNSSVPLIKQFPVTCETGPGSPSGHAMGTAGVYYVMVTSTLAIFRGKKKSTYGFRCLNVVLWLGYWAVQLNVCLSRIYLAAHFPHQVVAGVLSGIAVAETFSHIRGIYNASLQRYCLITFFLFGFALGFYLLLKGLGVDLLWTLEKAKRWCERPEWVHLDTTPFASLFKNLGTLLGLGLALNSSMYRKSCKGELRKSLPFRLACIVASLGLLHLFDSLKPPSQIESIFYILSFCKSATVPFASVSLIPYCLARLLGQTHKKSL

T1 sequence (P07379 whole entry): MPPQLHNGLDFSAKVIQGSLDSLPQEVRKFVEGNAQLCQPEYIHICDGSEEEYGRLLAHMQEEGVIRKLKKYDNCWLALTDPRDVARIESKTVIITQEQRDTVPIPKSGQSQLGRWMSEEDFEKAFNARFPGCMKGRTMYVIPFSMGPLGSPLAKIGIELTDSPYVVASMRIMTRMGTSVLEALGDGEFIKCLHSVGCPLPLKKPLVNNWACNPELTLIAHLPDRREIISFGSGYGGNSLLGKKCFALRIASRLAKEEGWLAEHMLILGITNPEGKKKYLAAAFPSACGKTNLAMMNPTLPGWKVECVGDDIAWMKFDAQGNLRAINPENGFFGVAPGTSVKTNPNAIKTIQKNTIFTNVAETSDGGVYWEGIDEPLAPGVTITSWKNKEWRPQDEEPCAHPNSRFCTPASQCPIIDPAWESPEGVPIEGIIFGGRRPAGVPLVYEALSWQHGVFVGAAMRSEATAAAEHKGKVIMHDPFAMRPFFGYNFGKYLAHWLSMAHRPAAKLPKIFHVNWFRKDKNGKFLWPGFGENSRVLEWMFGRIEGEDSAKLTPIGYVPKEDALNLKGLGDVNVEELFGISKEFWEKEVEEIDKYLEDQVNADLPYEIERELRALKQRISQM

COc1cc2c(cc1O)C[C@H]1c3c(cc(O)c(OC)c3-2)CCN1C [boldine, 1,10-dimethoxy-2,9-dihydroxy aporphine]
inhibition at 200 µM [1]: 49%
inhibition at 200 µM [2]: 42%
inhibition at 200 µM [3]: 35%

— PMC10089784, “Inhibition of Gluconeogenesis by Boldine in the Perfused Liver: Therapeutical Implication for Glycemic Control” (International Journal of Hepatology, 2023)
